Results as given in patent publication US10611750B2, “Tetrahydroquinoline compositions as bet bromodomain inhibitors” (FORMA Therapeutics, Inc., priority 2013, dated 2020).

Experiments:
[1] = target: T1, BRD4 Bromodomain 2 (BRD4 BD2) (Homo sapiens, UniProt O60885); test: AlphaScreen binding assay, BRD4 BD2; conditions: His-tagged BRD4 BD2 100 nM, biotinylated H4 (1-21) K5/8/12/16 tetra-acetylated peptide 100 nM, compounds listed under IC50 range headings
T1 construct: 333-460 were cloned, expressed, and purified to homogeneity
Outline: (§1)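 An AlphaScreen competition format was used with His-BRD4 BD1 or BD2 and biotin-H4 K5/8/12/16-acetyl peptide, each at matched final levels of 50 nM (BD1) or 100 nM (BD2). Incubation in HEPES/NaCl buffer with 0.1% BSA and 0.01% Triton X-100 ran ≥1 h before IC50 determination.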

[2] = target: T2, BRD4 Bromodomain 1 (BRD4 BD1) (Homo sapiens, UniProt O60885); test: AlphaScreen binding assay, BRD4 BD1; conditions: His-tagged BRD4 BD1 50 nM, biotinylated H4 (1-21) K5/8/12/16 tetra-acetylated peptide 50 nM, compounds listed under IC50 range headings
T2 construct: 44-168 and BRD4 BD2
Outline: as §1

[3] = system: acute myelocytic leukemia (AML) cell line MV4-11; test: Oncology cell growth assay (3-day proliferation, CellTiter-Glo); assay type: cell-based; conditions: Homo sapiens, MV4-11, 72 h, MV4-11 cells, 3000 cells/well, compounds listed under IC50 range headings, read-out: MV411 IC50 (gIC50, inhibition of proliferation)
Outline: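 Compounds were serially diluted 3-fold in DMSO, giving final well concentrations from 10 down to 0.0045 μM. MV4-11 cells were then seeded at 3000 cells/well in RPMI 1640 with 10% FBS and incubated 72 hours. CellTiter-Glo signal was measured and gIC50 obtained by four-parameter logistic regression.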

IC50 [1] [nM] | IC50 [2] [nM] | IC50 [3] [nM] | Structure (SMILES)
50 to 500 | 100 to 1000 | < 500 | CC(=O)N1c2ccc(-c3cnn(CCS(C)(=O)=O)c3)c(OCC3CCOCC3)c2CC[C@@H]1C [I-413]
< 50 | < 100 | < 500 | CC(=O)N1c2ccc(-c3cnn(CCO)c3)c(OCC3CCOCC3)c2CC[C@@H]1C [I-415]
< 50 | < 100 | < 500 | CC(=O)N1c2ccc(-c3cnn(C4CCNCC4)c3)c(OCC3CCOCC3)c2CC[C@@H]1C [I-416]
< 50 | 100 to 1000 | < 500 | CC(=O)N1c2ccc(-c3cnn(CCS(C)(=O)=O)c3)c(OCC(C)C)c2CC[C@@H]1C [I-420]
< 50 | 100 to 1000 | < 500 | CC(=O)N1c2ccc(-c3cnn(CCO)c3)c(OCC(C)C)c2CC[C@@H]1C [I-422]
< 50 | < 100 | < 500 | CC(=O)N1c2ccc(-c3cnn(C4CCNCC4)c3)c(OCC(C)C)c2CC[C@@H]1C [I-423]
< 50 | 100 to 1000 | < 500 | CC(=O)N1c2ccc(-c3cnn(CCS(C)(=O)=O)c3)c(OCC3CCCC3)c2CC[C@@H]1C [I-424]
50 to 500 | 100 to 1000 | < 500 | CC(=O)N1c2ccc(-c3cnn(CC(C)(C)O)c3)c(OCC3CCCC3)c2CC[C@@H]1C [I-425]
< 50 | < 100 | < 500 | CC(=O)N1c2ccc(-c3cnn(CCO)c3)c(OCC3CCCC3)c2CC[C@@H]1C [I-426]
< 50 | < 100 | < 500 | CC(=O)N1c2ccc(-c3cnn(C4CCNCC4)c3)c(OCC3CCCC3)c2CC[C@@H]1C [I-427]
50 to 500 | 100 to 1000 | 500 to 1000 | CC(=O)N1c2ccc(-c3cnn(C4CCNCC4)c3)c(OCC(=O)N3CCCC3)c2CC[C@@H]1C [I-431]
< 50 | 1000 to 10000 | < 500 | CCCOc1c(-c2cnn(CC(C)(C)O)c2)ccc2c1CC[C@H](C)N2C(=O)OC [I-442]
< 50 | 1000 to 10000 | < 500 | CCCOc1c(-c2cnn(CCO)c2)ccc2c1CC[C@H](C)N2C(=O)OC [I-443]
< 50 | 100 to 1000 | < 500 | COC(=O)N1c2ccc(-c3cnn(CCS(C)(=O)=O)c3)c(OC3CCC3)c2CC[C@@H]1C [I-444]
< 50 | 1000 to 10000 | < 500 | COC(=O)N1c2ccc(-c3cnn(CC(C)(C)O)c3)c(OC3CCC3)c2CC[C@@H]1C [I-445]
50 to 500 | 100 to 1000 | < 500 | COC(=O)N1c2ccc(-c3cnn(CCO)c3)c(OC3CCC3)c2CC[C@@H]1C [I-446]
< 50 | < 100 | < 500 | COC(=O)N1c2ccc(-c3cnn(C4CCNCC4)c3)c(OC3CCC3)c2CC[C@@H]1C [I-447]
50 to 500 | 100 to 1000 | < 500 | COC(=O)N1c2ccc(-c3cnn(CC(C)(C)O)c3)c(OCC3CCOCC3)c2CC[C@@H]1C [I-449]
< 50 | 100 to 1000 | < 500 | COC(=O)N1c2ccc(-c3cnn(C4CCNCC4)c3)c(OCC(C)C)c2CC[C@@H]1C [I-458]
50 to 500 | 100 to 1000 | > 1000 | COC(=O)N1c2ccc(-c3cnn(CCS(C)(=O)=O)c3)c(OCC3CCCC3)c2CC[C@@H]1C [I-459]
< 50 | 100 to 1000 | 500 to 1000 | COC(=O)N1c2ccc(-c3cnn(CCO)c3)c(OCC3CCCC3)c2CC[C@@H]1C [I-461]
< 50 | 100 to 1000 | 500 to 1000 | COC(=O)N1c2ccc(-c3cnn(C4CCNCC4)c3)c(OCC3CCCC3)c2CC[C@@H]1C [I-462]
50 to 500 | 100 to 1000 | > 1000 | COC(=O)N1c2ccc(-c3cnn(C4CCNCC4)c3)c(OCC(=O)N3CCCC3)c2CC[C@@H]1C [I-466]
< 50 | 1000 to 10000 | > 1000 | CC(=O)N1c2ccc(-c3cnn(C4CC4)c3)c(OCc3ccncc3)c2CC[C@@H]1C [I-479]
50 to 500 | 1000 to 10000 | < 500 | CCCOc1c(-c2ccc(OCCN(C)C)cc2)ccc2c1CC[C@H](C)N2C(C)=O [I-486]
≥ 500 | 1000 to 10000 | > 1000 | CC(=O)N1c2ccc(-c3ccc(OCCN(C)C)cc3)c(OCC(=O)N(C)C)c2CC[C@@H]1C [I-487]
50 to 500 | 1000 to 10000 | > 1000 | CC(=O)N1c2ccc(-c3cccc(NS(C)(=O)=O)c3)c(OCC(=O)N(C)C)c2CC[C@@H]1C [I-491]
50 to 500 | 1000 to 10000 | > 1000 | CC(=O)N1c2ccc(-c3ccc4c(c3)CCN4S(C)(=O)=O)c(OCC(=O)N(C)C)c2CC[C@@H]1C [I-501]
≥ 500 | 1000 to 10000 | > 1000 | CCCOc1c(-c2cc3ccccc3o2)ccc2c1CC[C@H](C)N2C(C)=O [I-504]
< 50 | 100 to 1000 | < 500 | CC(=O)N1c2ccc(-c3cnn(C4CCNCC4)c3)c(Oc3ncc(F)cn3)c2CC[C@@H]1C [I-511]

The remaining lines, values behind:

Structure (SMILES) | IC50 [1] [nM] | IC50 [2] [nM] | IC50 [3] [nM]
COC(=O)N1c2ccc(-c3cnn([C@@H]4CCNC[C@@H]4F)c3)c(Oc3ccc(F)cc3)c2CC[C@@H]1C [I-365, methyl (2 S)-5-(4-fluorophenoxy)-6-{1-[(3S,4R)-3-fluoropiperidin-4-yl]-1H-pyrazol-4-yl}-2-methyl-1,2,3,4-tetrahydroquinoline-1-carboxylate] | < 50 | 100 to 1000 | < 500
COC(=O)N1c2ccc(-c3cnn([C@H]4CCNC[C@H]4F)c3)c(Oc3ccc(F)cc3)c2CC[C@@H]1C [I-366, methyl (2 S)-5-(4-fluorophenoxy)-6-{1-[(3R,4S)-3-fluoropiperidin-4-yl]-1H-pyrazol-4-yl}-2-methyl-1,2,3,4-tetrahydroquinoline-1-carboxylate] | < 50 | 100 to 1000 | < 500
CC(=O)N1c2ccc(-c3cnn(C4CC4)c3)c(OCCNS(C)(=O)=O)c2CC[C@@H]1C [I-382] | 50 to 500 | 100 to 1000 | 500 to 1000
CC(=O)N1c2ccc(-c3cnn(C4CC4)c3)c(OCC3CCCC3)c2CC[C@@H]1C [I-385] | < 50 | < 100 | < 500
CCCOc1c(-c2cnn(C3CC3)c2)ccc2c1CC[C@H](C)N2C(C)=O [I-387] | < 50 | 100 to 1000 | < 500
CC(=O)N1c2ccc(-c3cnn(C4CC4)c3)c(OC(C)C)c2CC[C@@H]1C [I-388] | 50 to 500 | 100 to 1000 | 500 to 1000
CC(=O)N1c2ccc(-c3cnn(C4CC4)c3)c(OC3CCC3)c2CC[C@@H]1C [I-389] | < 50 | 100 to 1000 | < 500
CC(=O)N1c2ccc(-c3cnn(C4CC4)c3)c(OCC3CC3)c2CC[C@@H]1C [I-390] | < 50 | 100 to 1000 | < 500
CC(=O)N1c2ccc(-c3cnn(C4CC4)c3)c(OCC3CCC3)c2CC[C@@H]1C [I-392] | 50 to 500 | 100 to 1000 | < 500
CC(=O)N1c2ccc(-c3cnn(C4CC4)c3)c(OCC3(C)COC3)c2CC[C@@H]1C [I-395] | 50 to 500 | 100 to 1000 | 500 to 1000
CC(=O)N1c2ccc(-c3cnn(C4CC4)c3)c(OC3CCCC3)c2CC[C@@H]1C [I-396] | < 50 | 100 to 1000 | < 500
COCCOc1c(-c2cnn(C3CC3)c2)ccc2c1CC[C@H](C)N2C(C)=O [I-398] | 50 to 500 | 100 to 1000 | 500 to 1000
CC(=O)N1c2ccc(-c3cnn(C4CC4)c3)c(OCC3CCOCC3)c2CC[C@@H]1C [I-400] | 50 to 500 | 100 to 1000 | < 500
CC(=O)N1c2ccc(-c3cnn(C4CC4)c3)c(OCC(=O)N(C)C)c2CC[C@@H]1C [I-401] | < 50 | 100 to 1000 | < 500
CC(=O)N1c2ccc(-c3cnn(C4CC4)c3)c(OCC3CCCCC3)c2CC[C@@H]1C [I-402] | 50 to 500 | 100 to 1000 | 500 to 1000
CCCOc1c(-c2cnn(CCS(C)(=O)=O)c2)ccc2c1CC[C@H](C)N2C(C)=O [I-407] | < 50 | 100 to 1000 | < 500
CCCOc1c(-c2cnn(CC(C)(C)O)c2)ccc2c1CC[C@H](C)N2C(C)=O [I-408] | < 50 | 100 to 1000 | < 500
CC(=O)N1c2ccc(-c3cnn(CCS(C)(=O)=O)c3)c(OC3CCC3)c2CC[C@@H]1C [I-409] | < 50 | 100 to 1000 | < 500
CC(=O)N1c2ccc(-c3cnn(CC(C)(C)O)c3)c(OC3CCC3)c2CC[C@@H]1C [I-410] | < 50 | 1000 to 10000 | < 500
CC(=O)N1c2ccc(-c3cnn(CCO)c3)c(OC3CCC3)c2CC[C@@H]1C [I-411] | < 50 | 100 to 1000 | < 500
CC(=O)N1c2ccc(-c3cnn(C4CCNCC4)c3)c(OC3CCC3)c2CC[C@@H]1C [I-412] | < 50 | 100 to 1000 | < 500
